Test results taken from patent publication US20260217701A1, “SELECTIVE BET INHIBITORS AND USES THEREOF” (Tay Therapeutics Limited, priority 2022, published 2026).
Marks after values point to notes of the source that are not given here. Values belong to the molecule of their own block, whether it stands above or below them.

What was measured:
BRD4 BD1 = molecular target: T1, BRD4 BD1 (Homo sapiens, UniProt O60885); assay: NanoBRET bromodomain assay, NanoLuc-BRD4-BD1 in HEK293 cells; assay type: binding
T1 construct: HEK293 cells were transfected using NanoLuc-BRD4-BD1 or NanoLuc-BRD4-BD2 fusion vectors
Description: Exemplary compounds of the disclosure are active against BRD4 BD2 and selective over BRD4 BD1. BRD4 is a representative example of the BET family, as the binding sites of all BET family members are structurally similar. […] IC50s and fold selectivity's are determined as described below and are represented in Table 1.
(§1) Plates were then incubated at 37° C.+5% CO2 incubator for 2 hours.
(§2) Fold Selectivity Calculated (IC50 BD1/IC50 BD2).

BRD4 BD2 = molecular target: T2, BRD4 BD2 (Homo sapiens, UniProt O60885); assay: NanoBRET bromodomain assay, NanoLuc-BRD4-BD2 in HEK293 cells; assay type: binding; conditions: for Fold Selectivity BRD4 BD1/BD2: IC50 BD1/IC50 BD2, qualitative if an IC50 is at the upper limit
T2 construct: HEK293 cells were transfected using NanoLuc-BRD4-BD1 or NanoLuc-BRD4-BD2 fusion vectors
Description: as §1, §2

[1] = test system: experimental autoimmune encephalomyelitis; assay: Experimental autoimmune encephalomyelitis (EAE) model: EAE scores, onset, incidence; assay type: in vivo, C57BI/6 mice; conditions: FTY720 (Group 5)
Description: (§3) Experimental Method H: EAE in animals treated with a BET inhibitor and vehicle. Animals were assigned to the groups outlined in Table 38.
(§4) Compound A may be formulated as illustrated in Experimental Method A (see Table 2E.). A 40 mg/mL stock solution of Compound A in DMSO was prepared and aliquots stored at −20° C. On each day of preparation an e.g., 0.75 mL aliquot of thawed stock was diluted with an equal volume of DMSO. The remaining vehicle components were added to provide the highest dose and then diluted with vehicle to provide lower doses. A 30 mg/mL stock solution of FTY720 in ethanol was prepared and stored at −20° C. Daily, the stock solution was diluted with room temperature water to a final dosing concentration of 0.6 mg/mL. Formulated Compound A, FTY720 and vehicle were each at room temperature for dosing.
(§5) Female C57BI/6 mice (9 weeks old) were acclimated for seven days prior to study initiation. On Day-1, animals were assigned to groups in a balanced manner to achieve similar average weights across the different groups. Chronic EAE was induced in female C57BI/6 mice following immunization with an emulsion of MOG35-55/CFA on Day 0, followed by an injection of pertussis toxin two hours after the initial immunization. On Day 1, a second injection of pertussis toxin was administered 24 hours after the initial immunization. Mice were injected subcutaneously at two sites on the back with the MOG35-55/CFA emulsion (Hooke Kit™ MOG35-55/CFA Emulsion PTX). The first injection site was located approximately 1 cm caudal of the neckline (upper back), and the second injection site was approximately 2 cm cranial of the base of the tail (lower back). The injection volume was 0.1 mL for each injection. The pertussis toxin was administered at the described times through intraperitoneal injection at a concentration of 85 ng/dose for both injections.
(§6) Body weight was measured three times a week (Monday, Wednesday, and Friday) starting on Day-1. Animals were scored daily for EAE starting on Day 7. In-between scores were assigned when the clinical signs fell between two below defined scores.

EAE study: body weight = assay type: in vivo, C57BI/6 mice; conditions: for Mean Body Weight / Mean Body Weight (% of Day −1): FTY720 (Group 5)
Description: as §3, §4, §5, §6

IC50 (BRD4 BD1): > 1000 nM | IC50 (BRD4 BD2): 10 to 50 nM | Fold Selectivity BRD4 BD1/BD2 (BRD4 BD2): xxx (Fold >200 and ≤1000)
Compound: Cn1cc(-c2ccccc2)c(-c2cn(C)c(=O)c3[nH]c(-c4cccn(C)c4=O)cc23)cc1=O [Example 1, 6-methyl-2-(1-methyl-2-oxo-1,2-dihydropyridin-3-yl)-4-(1-methyl-2-oxo-5-phenyl-1,2-dihydropyridin-4-yl)-1,6-dihydro-7H-pyrrolo[2,3-c]pyridin-7-one]

IC50 (BRD4 BD1): > 1000 nM | IC50 (BRD4 BD2): 50 to 200 nM | Fold Selectivity BRD4 BD1/BD2 (BRD4 BD2): xx (Fold >50 and ≤200)
Compound: Cn1cc(-c2cccc(CS(C)(=O)=O)c2)c(-c2cn(C)c(=O)c3[nH]c(-c4cnn(C(F)(F)F)c4)cc23)cc1=O [Example 2, 6-methyl-4-(1-methyl-5-(3-((methylsulfonyl)methyl)phenyl)-2-oxo-1,2-dihydropyridin-4-yl)-2-(1-(trifluoromethyl)-1H-pyrazol-4-yl)-1,6-dihydro-7H-pyrrolo[2,3-c]pyridin-7-one]

IC50 (BRD4 BD1): > 1000 nM | IC50 (BRD4 BD2): 50 to 200 nM | Fold Selectivity BRD4 BD1/BD2 (BRD4 BD2): xx (Fold >50 and ≤200)
Compound: CN(C)CCOc1cccc(-c2cn(C)c(=O)cc2-c2cn(C)c(=O)c3[nH]c(-c4cnn(C(F)(F)F)c4)cc23)c1 [Example 3, 4-(5-(3-(2-(dimethylamino)ethoxy)phenyl)-1-methyl-2-oxo-1,2-dihydropyridin-4-yl)-6-methyl-2-(1-(trifluoromethyl)-1H-pyrazol-4-yl)-1,6-dihydro-7H-pyrrolo[2,3-c]pyridin-7-one]

IC50 (BRD4 BD1): > 1000 nM | IC50 (BRD4 BD2): > 1000 nM | Fold Selectivity BRD4 BD1/BD2 (BRD4 BD2): — (Fold ≥0 and ≤2)
Compound: Cn1cc(-c2cccc(CN3CCNCC3)c2)c(-c2cn(C)c(=O)c3[nH]c(-c4cnn(C(F)(F)F)c4)cc23)cc1=O [Example 4, 6-methyl-4-(1-methyl-2-oxo-5-(3-(piperazin-1-ylmethyl)phenyl)-1,2-dihydropyridin-4-yl)-2-(1-(trifluoromethyl)-1H-pyrazol-4-yl)-1,6-dihydro-7H-pyrrolo[2,3-c]pyridin-7-one]

IC50 (BRD4 BD1): > 1000 nM | IC50 (BRD4 BD2): 10 to 50 nM | Fold Selectivity BRD4 BD1/BD2 (BRD4 BD2): xxx (Fold >200 and ≤1000)
Compound: Cn1cc(-c2cc(=O)n(C3COC3)cc2-c2ccccc2)c2cc(-c3cnn(C(F)(F)F)c3)[nH]c2c1=O [Example 5, 6-methyl-4-(1-(oxetan-3-yl)-2-oxo-5-phenyl-1,2-dihydropyridin-4-yl)-2-(1-(trifluoromethyl)-1H-pyrazol-4-yl)-1,6-dihydro-7H-pyrrolo[2,3-c]pyridin-7-one]

IC50 (BRD4 BD1): > 1000 nM | IC50 (BRD4 BD2): < 10 nM | Fold Selectivity BRD4 BD1/BD2 (BRD4 BD2): xxxx (Fold >1000)
Compound: Cn1cc(-c2cccc3c2COC3)c(-c2cn(C)c(=O)c3[nH]c(-c4ccc(F)cc4F)cc23)cc1=O [Example 6, 2-(2,4-difluorophenyl)-4-(5-(1,3-dihydroisobenzofuran-4-yl)-1-methyl-2-oxo-1,2-dihydropyridin-4-yl)-6-methyl-1,6-dihydro-7H-pyrrolo[2,3-c]pyridin-7-one]

IC50 (BRD4 BD1): > 1000 nM | IC50 (BRD4 BD2): < 10 nM | Fold Selectivity BRD4 BD1/BD2 (BRD4 BD2): xxxx (Fold >1000)
Compound: COCc1cccc(-c2cn(C)c(=O)cc2-c2cn(C)c(=O)c3[nH]c(-c4cnn(C(F)(F)F)c4)cc23)c1 [Example 7, 4-(5-(3-(methoxymethyl)phenyl)-1-methyl-2-oxo-1,2-dihydropyridin-4-yl)-6-methyl-2-(1-(trifluoromethyl)-1H-pyrazol-4-yl)-1,6-dihydro-7H-pyrrolo[2,3-c]pyridin-7-one]

IC50 (BRD4 BD1): > 1000 nM | IC50 (BRD4 BD2): < 10 nM | Fold Selectivity BRD4 BD1/BD2 (BRD4 BD2): xxxx (Fold >1000)
Compound: COCc1ccc(-c2cn(C)c(=O)cc2-c2cn(C)c(=O)c3[nH]c(-c4cnn(C(F)(F)F)c4)cc23)cc1 [Example 8, 4-(5-(4-(methoxymethyl)phenyl)-1-methyl-2-oxo-1,2-dihydropyridin-4-yl)-6-methyl-2-(1-(trifluoromethyl)-1H-pyrazol-4-yl)-1,6-dihydro-7H-pyrrolo[2,3-c]pyridin-7-one]

IC50 (BRD4 BD1): > 1000 nM | IC50 (BRD4 BD2): < 10 nM | Fold Selectivity BRD4 BD1/BD2 (BRD4 BD2): xxxx (Fold >1000)
Compound: COCCOc1ccc(-c2cn(C)c(=O)cc2-c2cn(C)c(=O)c3[nH]c(-c4cnn(C(F)(F)F)c4)cc23)cc1 [Example 9, 4-(5-(4-(2-methoxyethoxy)phenyl)-1-methyl-2-oxo-1,2-dihydropyridin-4-yl)-6-methyl-2-(1-(trifluoromethyl)-1H-pyrazol-4-yl)-1,6-dihydro-7H-pyrrolo[2,3-c]pyridin-7-one]

IC50 (BRD4 BD1): > 1000 nM | IC50 (BRD4 BD2): 10 to 50 nM | Fold Selectivity BRD4 BD1/BD2 (BRD4 BD2): xxx (Fold >200 and ≤1000)
Compound: Cn1cc(-c2ccccc2)c(-c2cn(C)c(=O)c3[nH]c(-c4cnn(C(F)(F)F)c4)c(Cl)c23)cc1=O [Example 10, 3-chloro-6-methyl-4-(1-methyl-2-oxo-5-phenyl-1,2-dihydropyridin-4-yl)-2-(1-(trifluoromethyl)-1H-pyrazol-4-yl)-1,6-dihydro-7H-pyrrolo[2,3-c]pyridin-7-one]

IC50 (BRD4 BD1): > 1000 nM | IC50 (BRD4 BD2): < 10 nM | Fold Selectivity BRD4 BD1/BD2 (BRD4 BD2): xxxx (Fold >1000)
Compound: Cc1cccc(C)c1Oc1cn(C)c(=O)cc1-c1cn(C)c(=O)c2[nH]c(-c3cnn(C(F)(F)F)c3)cc12 [Example 11, 4-(5-(2,6-dimethylphenoxy)-1-methyl-2-oxo-1,2-dihydropyridin-4-yl)-6-methyl-2-(1-(trifluoromethyl)-1H-pyrazol-4-yl)-1,6-dihydro-7H-pyrrolo[2,3-c]pyridin-7-one]

Compound: CCCCCCCCc1ccc(CCC(N)(CO)CO)cc1 [FTY720, reference compound]
Incidence of EAE (%) [1]: 16.7*** % | Mean Day of Onset (SEM) [1]: 18.5 (0.5) Day | Mean End Score (SEM) [1]: 0.21 (0.14)*** | Mean Maximum Score (SEM) [1]: 0.33 (0.23)*** | Median Day of Onset [1]: >28.0 days | Mean EAE score ([1]; Day 7): 0.00 | Mean EAE score ([1]; Day 8): 0.00 | Mean EAE score ([1]; Day 9): 0.00 | Mean EAE score ([1]; Day 10): 0.00 | Mean EAE score ([1]; Day 11): 0.00 | Mean EAE score ([1]; Day 12): 0.00 | Mean EAE score ([1]; Day 13): 0.00 | Mean EAE score ([1]; Day 14): 0.00 | Mean EAE score ([1]; Day 15): 0.00 | Mean EAE score ([1]; Day 16): 0.00 | Mean EAE score ([1]; Day 17): 0.00 | Mean EAE score ([1]; Day 18): 0.13 | Mean EAE score ([1]; Day 19): 0.25 | Mean EAE score ([1]; Day 20): 0.25 | Mean EAE score ([1]; Day 21): 0.29 | Mean EAE score ([1]; Day 22): 0.33 | Mean EAE score ([1]; Day 23): 0.29 | Mean EAE score ([1]; Day 24): 0.29 | Mean EAE score ([1]; Day 25): 0.21 | Mean EAE score ([1]; Day 26): 0.21 | Mean EAE score ([1]; Day 27): 0.21 | Mean EAE score ([1]; Day 28): 0.21 | Mean Body Weight (EAE study: body weight; Day 0): 20.3 g | Mean Body Weight (% of Day −1) (EAE study: body weight; Day 0): 100.7 % of Day −1 | Mean Body Weight (EAE study: body weight; Day 2): 19.9 g | Mean Body Weight (% of Day −1) (EAE study: body weight; Day 2): 98.4 % of Day −1 | Mean Body Weight (EAE study: body weight; Day 5): 21.2 g | Mean Body Weight (% of Day −1) (EAE study: body weight; Day 5): 105.1 % of Day −1 | Mean Body Weight (EAE study: body weight; Day 7): 21.3 g | Mean Body Weight (% of Day −1) (EAE study: body weight; Day 7): 105.4 % of Day −1 | Mean Body Weight (EAE study: body weight; Day 9): 21.8 g | Mean Body Weight (% of Day −1) (EAE study: body weight; Day 9): 108.2 % of Day −1 | Mean Body Weight (EAE study: body weight; Day 12): 21.5 g | Mean Body Weight (% of Day −1) (EAE study: body weight; Day 12): 106.5 % of Day −1 | Mean Body Weight (EAE study: body weight; Day 14): 21.6 g | Mean Body Weight (% of Day −1) (EAE study: body weight; Day 14): 107.2 % of Day −1 | Mean Body Weight (EAE study: body weight; Day 16): 21.6 g | Mean Body Weight (% of Day −1) (EAE study: body weight; Day 16): 107.0 % of Day −1 | Mean Body Weight (EAE study: body weight; Day 19): 21.6 g | Mean Body Weight (% of Day −1) (EAE study: body weight; Day 19): 106.9 % of Day −1 | Mean Body Weight (EAE study: body weight; Day 21): 21.7 g | Mean Body Weight (% of Day −1) (EAE study: body weight; Day 21): 107.5 % of Day −1 | Mean Body Weight (EAE study: body weight; Day 23): 22.0 g | Mean Body Weight (% of Day −1) (EAE study: body weight; Day 23): 109.3 % of Day −1 | Mean Body Weight (EAE study: body weight; Day 27): 21.9 g | Mean Body Weight (% of Day −1) (EAE study: body weight; Day 27): 108.3 % of Day −1 | Mean Body Weight (EAE study: body weight; Day 28): 22.0 g | Mean Body Weight (% of Day −1) (EAE study: body weight; Day 28): 108.9 % of Day −1 | Mean Body Weight (EAE study: body weight; Day −1): 20.2 g | Mean Body Weight (% of Day −1) (EAE study: body weight; Day −1): 100.0 % of Day −1 | Mean Body Weight Change (% of Day −1) (EAE study: body weight; FTY720, mean end body weight): 108.9*** % of Day −1
